Here are results for 16 compounds from ChEMBL document CHEMBL1141638, “Influence of sulfur oxidation state and steric bulk upon trifluoromethyl ketone (TFK) binding kinetics to carboxylesterases and fatty acid amide hydrolase (FAAH)” (Bioorg Med Chem, 2008).

Bounds are passed on as bounds.

The target in assay [1] is T1, Fatty-acid amide hydrolase 1 (Homo sapiens, UniProt O00519).
T1 sequence (O00519 whole entry): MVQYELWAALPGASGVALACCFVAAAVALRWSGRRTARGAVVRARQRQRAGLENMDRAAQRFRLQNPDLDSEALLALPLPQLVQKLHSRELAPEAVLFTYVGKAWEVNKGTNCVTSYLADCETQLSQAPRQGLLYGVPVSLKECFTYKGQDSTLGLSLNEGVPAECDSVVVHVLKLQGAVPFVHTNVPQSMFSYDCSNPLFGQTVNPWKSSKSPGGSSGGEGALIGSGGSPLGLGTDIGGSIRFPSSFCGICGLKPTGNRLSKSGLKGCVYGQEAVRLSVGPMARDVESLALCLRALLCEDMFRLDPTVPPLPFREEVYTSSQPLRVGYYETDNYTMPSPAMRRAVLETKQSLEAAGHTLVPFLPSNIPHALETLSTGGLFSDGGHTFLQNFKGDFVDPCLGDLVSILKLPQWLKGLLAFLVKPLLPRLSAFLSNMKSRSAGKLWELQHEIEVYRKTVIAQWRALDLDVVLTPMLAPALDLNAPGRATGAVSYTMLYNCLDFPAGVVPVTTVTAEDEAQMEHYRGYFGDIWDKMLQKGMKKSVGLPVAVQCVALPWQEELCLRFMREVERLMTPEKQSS
The assay can be described thus: Inhibition of human recombinant FAAH after 5 mins.

In assay [2] the target is T1, Fatty-acid amide hydrolase 1. The assay can be described thus: Inhibition of human recombinant FAAH after 15 mins.
Assay [3] addresses T2, Liver carboxylesterase (Sus scrofa, UniProt Q29550).
T2 sequence (Q29550 whole entry): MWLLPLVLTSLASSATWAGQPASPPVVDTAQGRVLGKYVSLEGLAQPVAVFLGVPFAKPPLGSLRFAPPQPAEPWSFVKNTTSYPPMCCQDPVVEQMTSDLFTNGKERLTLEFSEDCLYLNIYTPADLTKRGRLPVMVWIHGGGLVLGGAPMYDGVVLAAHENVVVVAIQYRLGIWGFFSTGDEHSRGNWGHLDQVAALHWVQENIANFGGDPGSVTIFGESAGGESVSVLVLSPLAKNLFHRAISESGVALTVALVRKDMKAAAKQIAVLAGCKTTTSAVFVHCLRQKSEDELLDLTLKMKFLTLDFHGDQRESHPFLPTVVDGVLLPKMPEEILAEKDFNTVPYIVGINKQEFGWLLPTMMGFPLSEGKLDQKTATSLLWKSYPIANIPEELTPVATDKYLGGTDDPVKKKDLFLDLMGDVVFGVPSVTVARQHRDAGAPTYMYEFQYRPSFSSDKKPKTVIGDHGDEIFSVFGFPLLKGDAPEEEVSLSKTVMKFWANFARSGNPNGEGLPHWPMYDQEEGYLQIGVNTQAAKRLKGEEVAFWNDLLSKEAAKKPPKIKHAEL
The assay can be described thus: Inhibition of pig liver carboxylesterase after 5 mins.

In assay [4] the target is T2, Liver carboxylesterase. The assay can be described thus: Inhibition of pig liver carboxylesterase after 15 mins.
The target of assay [5] is T3, Liver carboxylesterase 1 (Homo sapiens, UniProt P23141).
T3 sequence (P23141 whole entry): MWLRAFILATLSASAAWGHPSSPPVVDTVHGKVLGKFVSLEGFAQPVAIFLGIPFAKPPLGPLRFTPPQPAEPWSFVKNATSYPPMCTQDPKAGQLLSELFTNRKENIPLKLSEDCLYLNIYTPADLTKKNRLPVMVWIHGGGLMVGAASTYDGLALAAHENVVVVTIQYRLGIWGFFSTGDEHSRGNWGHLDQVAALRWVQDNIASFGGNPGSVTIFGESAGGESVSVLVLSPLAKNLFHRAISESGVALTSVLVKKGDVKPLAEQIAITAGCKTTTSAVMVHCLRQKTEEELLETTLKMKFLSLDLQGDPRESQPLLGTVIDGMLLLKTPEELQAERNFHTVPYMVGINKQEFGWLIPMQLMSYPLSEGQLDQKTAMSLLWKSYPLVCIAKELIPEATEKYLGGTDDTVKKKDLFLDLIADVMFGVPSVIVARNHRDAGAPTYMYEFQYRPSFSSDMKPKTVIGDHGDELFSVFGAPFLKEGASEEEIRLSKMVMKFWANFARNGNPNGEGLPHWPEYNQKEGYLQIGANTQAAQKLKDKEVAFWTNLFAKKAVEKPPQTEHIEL
The assay can be described thus: Inhibition of human recombinant carboxylesterase 1 after 5 mins.

Assay [6] addresses T3, Liver carboxylesterase 1. The assay can be described thus: Inhibition of human recombinant carboxylesterase 1 after 15 mins.
A short description of assay [7]: Inhibition of rabbit liver carboxylesterase after 5 mins. The arrangement: species or system Oryctolagus cuniculus.
A short description of assay [8]: Inhibition of Manduca sexta juvenile hormone esterase […] mutant.
The target of assay [9] is T4, Juvenile hormone esterase (Manduca sexta, UniProt Q9GPG0).
T4 sequence (Q9GPG0 whole entry): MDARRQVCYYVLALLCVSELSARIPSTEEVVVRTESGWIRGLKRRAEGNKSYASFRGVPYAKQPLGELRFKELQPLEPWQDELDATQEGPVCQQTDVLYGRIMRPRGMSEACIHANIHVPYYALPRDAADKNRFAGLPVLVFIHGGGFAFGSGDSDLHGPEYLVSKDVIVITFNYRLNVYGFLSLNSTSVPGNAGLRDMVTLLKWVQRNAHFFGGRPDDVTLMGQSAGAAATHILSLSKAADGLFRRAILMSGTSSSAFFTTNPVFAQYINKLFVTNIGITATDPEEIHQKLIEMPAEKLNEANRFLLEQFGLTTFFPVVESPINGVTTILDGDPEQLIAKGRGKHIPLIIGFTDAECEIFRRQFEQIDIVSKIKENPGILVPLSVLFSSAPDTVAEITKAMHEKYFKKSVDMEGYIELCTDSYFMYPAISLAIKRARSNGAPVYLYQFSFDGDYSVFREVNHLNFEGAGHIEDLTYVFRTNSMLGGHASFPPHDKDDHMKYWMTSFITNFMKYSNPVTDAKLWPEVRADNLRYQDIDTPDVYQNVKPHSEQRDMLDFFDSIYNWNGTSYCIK
The assay can be described thus: Inhibition of Manduca sexta juvenile hormone esterase.

A short description of assay [10]: Inhibition of rabbit liver carboxylesterase after 15 mins. Further details: species or system Oryctolagus cuniculus.

One may read the IC50 as the concentration that inhibits the measured activity by half. On to `CCCCCCCCCCCC[S+]([O-])CC(=O)C(F)(F)F` (stereo unspecified), for which the 50% inhibitory concentration (IC50) in assay [1] came out at 440 nM; in assay [2], 600 nM; against Liver carboxylesterase [3] it was 12 nM; against Liver carboxylesterase [4], 8.6 nM.

As for `CCCCCCCCCCCCSCC(=O)C(F)(F)F`, the concentration for half-maximal inhibition (IC50) in assay [1] came to 84 nM; in [2] it was 89 nM; at Liver carboxylesterase [3], 12 nM; at Liver carboxylesterase [4], 5.3 nM.

Consider `CCCCCCCCCCC(=O)C(F)(F)F`, for which the IC50 on Liver carboxylesterase 1 [5] was 65 nM; on Liver carboxylesterase 1 [6], 30 nM; in assay [1] it was 1250 nM; in assay [7], 42 nM; in assay [2], 1800 nM; in assay [8] it was 1600 nM. The IC50 was 530 nM in [9], 25 nM at Liver carboxylesterase [3], 14 nM in assay [10] and 9.3 nM against Liver carboxylesterase [4].

Turning to `CCCCCCS(=O)(=O)CC(=O)C(F)(F)F`, the IC50 in assay [1] is more than 40000 nM; in assay [2] it was more than 40000 nM; against Liver carboxylesterase [3], 470 nM; against Liver carboxylesterase [4], 100 nM.

`O=C(C(=O)c1ccccc1)c1ccccc1` [BENZIL]: the IC50 was more than 40000 nM in assay [1]; 19 nM in assay [7]; more than 40000 nM in assay [2]; 370 nM against Liver carboxylesterase [3]; 29 nM in assay [10]; 830 nM on Liver carboxylesterase [4].

For `CCCCCC[S+]([O-])CC(=O)C(F)(F)F` (stereo unspecified), the IC50 in assay [1] is more than 40000 nM; in assay [2] it was more than 40000 nM; on Liver carboxylesterase [3], 280 nM; against Liver carboxylesterase [4] it was 33 nM.

For `CCCCCCSCC(=O)C(F)(F)F`, the IC50 in [1] was 1950 nM; in assay [2], 2500 nM; against Liver carboxylesterase [3], 7.5 nM; on Liver carboxylesterase [4], 1.8 nM.

For `CCCCCCCCCCCCS(=O)(=O)CC(=O)C(F)(F)F`, the IC50 in assay [1] came to 250 nM; in assay [2], 280 nM; against Liver carboxylesterase [3], 37 nM; against Liver carboxylesterase [4] it was 46 nM.

As for `CCCCSCC(=O)C(F)(F)F`, the IC50 in [1] is more than 40000 nM; in assay [2], more than 40000 nM; against Liver carboxylesterase [3], 20 nM; against Liver carboxylesterase [4], 4.5 nM.

On to `CCCCCCCCCCSCC(=O)C(F)(F)F`, for which the concentration for half-maximal inhibition (IC50) was 120 nM in assay [1], 170 nM in assay [2], 2.2 nM against Liver carboxylesterase [3] and 1.3 nM against Liver carboxylesterase [4].

For `CCCCCCCCCC[S+]([O-])CC(=O)C(F)(F)F` (stereo unspecified), the IC50 in assay [1] was 760 nM; in assay [2] it was 1350 nM; against Liver carboxylesterase [3] it was 5.5 nM; against Liver carboxylesterase [4], 3.2 nM.

`CCCCCCCC[S+]([O-])CC(=O)C(F)(F)F` (stereo unspecified): the half-inhibitory concentration (IC50) at Liver carboxylesterase 1 [5] came to 30 nM; on Liver carboxylesterase 1 [6], 5.5 nM; in assay [1], 6500 nM; in [7], 16 nM; in assay [2], 13900 nM; against Liver carboxylesterase [3], 200 nM. The IC50 came to 5 nM in assay [10] and 23 nM against Liver carboxylesterase [4].

For the compound `CCCCCCCCS(=O)(=O)CC(=O)C(F)(F)F`, the IC50 worked out at 18 nM on Liver carboxylesterase 1 [5]; 5.4 nM on Liver carboxylesterase 1 [6]; 14800 nM in assay [1]; 55 nM in assay [7]; 22500 nM in assay [2]; 830 nM against Liver carboxylesterase [3]. For the same compound, the IC50 in assay [10] amounted to 35 nM; against Liver carboxylesterase [4], 460 nM.

In the case of `CCCCCCCCSCC(=O)C(F)(F)F`, the IC50 came to 24 nM on Liver carboxylesterase 1 [5]; 13 nM at Liver carboxylesterase 1 [6]; 230 nM in assay [1]; 6.7 nM in [7]; 300 nM in assay [2]; 330 nM in [8]. Also, the IC50 was found to be 22 nM in assay [9], 5.6 nM against Liver carboxylesterase [3], 1.9 nM in [10] and 2.4 nM against Liver carboxylesterase [4].

Consider `CCCC[S+]([O-])CC(=O)C(F)(F)F` (stereo unspecified), for which the IC50 was more than 40000 nM in [1], more than 40000 nM in [2], 970 nM on Liver carboxylesterase [3] and 270 nM against Liver carboxylesterase [4].

With `CCCCCCCCCCS(=O)(=O)CC(=O)C(F)(F)F`, the IC50 in assay [1] was found to be 2200 nM; in [2], 3000 nM; at Liver carboxylesterase [3] it was 63 nM; at Liver carboxylesterase [4], 28 nM.
